Test results: PubChem BioAssay AID2739 (Broad Institute, 2010)
Results filed as inconclusive are left out. Calls of active or inactive are those of the source.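 The calls were made as follows: active = IC50 no more than tenfold above the highest tested concentration; inconclusive = flat fit with activity between 30% and 70%, or an invalid poor fit; inactive = IC50 beyond tenfold over the top concentration.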

Each compound was assayed against Zinc finger protein mex-5 (Caenorhabditis elegans) (UniProt Q9XUB2) (assay: inhibitors of MEX-5 RNA binding, dose response, biochemical, fluorescence polarization, MBP-MEX-5, FITC-TCR2 RNA (AID 2739)). Settings: MBP-MEX-5 / FITC-TCR2 RNA fluorescence polarization, 1 h.
Chain of Zinc finger protein mex-5 (Caenorhabditis elegans) (Q9XUB2 whole entry, looked up): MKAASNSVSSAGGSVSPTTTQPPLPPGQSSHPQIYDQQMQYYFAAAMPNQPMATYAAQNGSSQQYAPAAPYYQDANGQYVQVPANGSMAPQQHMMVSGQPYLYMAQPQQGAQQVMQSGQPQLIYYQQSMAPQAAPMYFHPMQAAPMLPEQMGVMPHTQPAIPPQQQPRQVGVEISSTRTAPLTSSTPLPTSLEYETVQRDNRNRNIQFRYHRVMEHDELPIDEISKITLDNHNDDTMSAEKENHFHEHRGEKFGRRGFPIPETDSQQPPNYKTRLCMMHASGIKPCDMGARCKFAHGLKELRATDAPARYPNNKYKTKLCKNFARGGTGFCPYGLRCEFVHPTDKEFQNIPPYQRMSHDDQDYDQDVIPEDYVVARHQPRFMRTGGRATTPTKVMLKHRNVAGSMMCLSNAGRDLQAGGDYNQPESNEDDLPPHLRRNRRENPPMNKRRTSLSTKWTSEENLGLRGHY

| SMILES | IC50 |
| --- | --- |
| CCOCCCNC(=O)CCC(=O)NNc1nc2ccccc2c2nc(C)nn12 | 2.28 µM |
| Cc1ccc(N2C(=O)NC(=O)/C(=C\c3cc(C)n(-c4ccc(C(=O)O)cc4)c3C)C2=O)cc1 | > 135 µM (inactive) |
| N=c1c(C(=O)NC2CCCCC2)cc2c(=O)n3ccccc3nc2n1Cc1cccnc1 | > 350 µM (inactive) |
| CCN(CC)c1ccc(/C=C2\C(=O)NC(=S)N(C)C2=O)o1 | > 135 µM (inactive) |
| CCOC(=O)c1cc(CC)sc1/N=C/c1c(O)[nH]c(=S)[nH]c1=O | > 350 µM (inactive) |
| CCc1ccccc1N1C(=O)/C(=C\c2ccc(N3CCN(C)CC3)o2)C(=O)NC1=S | > 135 µM (inactive) |
| Cc1nc(N=Nc2ccc(O)cc2)n[nH]1 | 16.1 µM |
| CCc1ccc(C(=O)NNC(=O)c2ccc(=O)n(C)n2)cc1 | 9.25 µM |
| NC(CO)C(=O)NNCc1ccc(O)c(O)c1O (stereo not drawn) | > 135 µM (inactive) |
| COCCNC(=O)CCC(=O)NNc1nc2ccccc2c2nc(C)nn12 | 1.49 µM |
| Cc1ncc(CO)c(/C=N/NC(=O)c2cc(Br)ccc2O)c1O | 7.89 µM |
| Cn1ncc2c(NNC(=O)Cc3ccccc3)ncnc21 | 1.31 µM |
| N=c1c(C(=O)NC2CCCCC2)cc2c(=O)n3ccccc3nc2n1Cc1ccc(F)cc1 | > 135 µM (inactive) |
| Cc1cnc(C(=O)NNC(=O)c2ccc(Br)cc2)cn1 | 1.07 µM |
| O=c1c(O)cccc2cc(O)c(O)c(O)c12 | 2.03 µM |
| COCCCNC(=O)CCC(=O)NNc1nc2ccccc2c2nc(C)nn12 | 1.64 µM |
| COc1ccc(-c2cn[nH]c2-c2ccc(OCC(=O)NN)cc2O)cc1OC | 1.57 µM |
| Cc1nc2ccccc2c(=O)n1/N=C/c1ccc(O)c(O)c1O | 0.924 µM |
| O=C(NNC(=O)c1ccccc1[N+](=O)[O-])c1csc(N2CCOCC2)n1 | 1.31 µM |
| CCOC(=O)C1CCN(C(=O)CCC(=O)NNc2nc3ccccc3c3nc(C)nn23)CC1 | 2.39 µM |
| CCN(CC)c1ccc(/C=C2\C(=O)NC(=S)N(c3ccc(OC)cc3OC)C2=O)o1 | > 135 µM (inactive) |
| CCCCN(C)C(=O)CCC(=O)NNc1nc2ccccc2c2nc(C)nn12 | 4.17 µM |
| CC1=C(C(=O)OCc2ccccc2)C(c2ccccc2[N+](=O)[O-])NC(=O)N1C (stereo not drawn) | 32.4 µM |
